For data set [1], the system named is LnCaP cells. Details: method as in PMID 27462923. To be noted: starting from a concentration of 50 µM; cited from earlier work.
Data set [2] concerns NCI H460 cells. The arrangement: method as in PMID 15680311. To be noted: NCI H460, 50–200 µM; cited from earlier work.
Data set [3] relates to PC3 cell line. Details: method as in PMID 27462923. To be noted: PC3, up to 150 µM; cited from earlier work.
The test system of data set [4] is DU145 cell line. Details: method as in PMID 27462923. To be noted: DU145, up to 150 µM; cited from earlier work.
The test system of data set [5] is 22Rν1 cells. Details: method as in PMID 18948740. To be noted: cited from earlier work.
The subject of data set [6] is LoVo cell subline resistant to adriamycin. Details: method as in PMID 20494645. To be noted: cited from earlier work.
Data set [7] has as its system SF-268 cells. Details: method as in PMID 15680311. To be noted: SF-268, 50–200 µM; cited from earlier work.
For data set [8], the system named is NHF cells. Details: method as in PMID 15016660. To be noted: 100–200 µM; cited from earlier work.
Data set [9] deals with A549 cells. The arrangement: method as in PMID 24124611. To be noted: cited from earlier work.
Data set [10] relates to LoVo cells. The arrangement: method as in PMID 20494645. To be noted: LoVo parent cell line; cited from earlier work.
For data set [11], the system named is NCI-H441 cells. Details: method as in PMID 24124611. To be noted: cited from earlier work.
For data set [12], the system named is SK-MES-1 cells. The arrangement: method as in PMID 24124611. To be noted: cited from earlier work.
For data set [13], the system named is MCF-7. Details: method as in PMID 15680311. To be noted: MCF-7, 50–200 µM; cited from earlier work.
Data set [14] deals with HT29 cells. The arrangement: method as in PMID 17729219. To be noted: cited from earlier work.
On the set-up of data set [15]: method as in PMID 17729219. To be noted: DMEM medium, after 30 min; cited from earlier work.
Data set [16] deals with AGS cells. Details: method as in PMID 15680311. To be noted: 50–200 µM; cited from earlier work.
The subject of data set [17] is Multidrug-resistant SKOV3 cells. The arrangement: method as in PMID 22954696. To be noted: cited from earlier work.
In data set [18] the test system is PEO1 cells. Put plainly: Cell migration (scraped area closure). It counts as cell-based, human. Here is the method:
Ovarian cancer cells and human normal fibroblasts were seeded on a 24-well plate at a density of 7 × 10^4/well (PEO1), 6.5 × 10^4/well (SKOV3) and 6 × 10^4/well (MRC-5) in 700 µL of appropriate cell medium and cultured at 37 °C to reach 90–95% confluence. Then, the cells in the middle of the wells were scraped off using sterile pipette tips (100 µL), cell debris was removed by washing with medium containing 2% FBS and the tested compounds diluted with medium containing 2% FBS were added. Images of the scraped area were collected after 12 h and 24 h at 10× objective magnification using an Olympus CKX53 microscope with a U-TV0. 5XC-3 digital microscope camera. The obtained results were analyzed using ImageJ software. The percentage of scraped area closure was estimated as the ratio of area measured after 12- or 24-h incubation and the area at the beginning of the experiment.

Data set [19] relates to not multi-resistant SKOV3 cells. The arrangement: method as in PMID 22954696. To be noted: cited from earlier work.

Molecules are shown by their SMILES.

As to `Oc1cc(O)c2cc(O)c(-c3cc(O)c(O)c(O)c3)[o+]c2c1` [Delphinidin chloride, 3,3′,4′,5,5′,7-hexahydroxyflavylium], the viability entry in data set [1] is on record as “concentration-dependently decreased the viability”; in data set [2] it was “did not affect significantly the viability”; in data set [3], “did not affect the viability”; in data set [4], “did not affect the viability”; in data set [7] it was “did not affect significantly the viability”; in [8], “decreased the viability”. Besides, the viability result is reported as “decreased, concentration-dependently, the viability” in [13] and “did not affect significantly the viability” in data set [16]. Also, the IC50 in data set [5] was 90 µM; in data set [6] it was 16 ± 2 µM; in data set [9] it was 55 µM; in data set [10], 38 µM; in [11], 58 µM; in data set [12], 44 µM. For the same compound, in data set [14], the IC50 was 35 µM. Moreover, the “stability in cell culture medium” value in [15] is listed as “not detectable”.
Regarding `O=C(O)C(=O)CBr` [3-BP, 3-bromopyruvic acid], the IC50 in data set [17] was 22 ± 4 µM; in [19] it was 19 ± 3 µM. Moreover, the cell migration entry in data set [18] is listed as “significantly inhibited”.

For orientation: IC50 means the concentration at which inhibition is half-maximal.

These data come from PMC7828231, “Delphinidin Increases the Sensitivity of Ovarian Cancer Cell Lines to 3-bromopyruvate” (International Journal of Molecular Sciences, 2021).
